From EP2140864A2 (H. Lundbeck A/S, priority 2001, dated 2002)

Tests used:
[1] = biological target: T1, Human 5HT2A Receptor (Homo sapiens, UniProt P28223); assay: Radioligand binding, 5HT2A receptor ([3H]ketanserin); conditions: for Ki: Table 7, read-out: h5HT2A Ki; for selectivity ratio h5HT2A: Table 8, Ki h5HT2A divided by Ki hGAL3
T1 construct: expressed in transfected cells; host or cells: COS-7 cells (pCEXV-3 vector, DEAE-dextran)
Experimental: Human 5HT2A Receptor: The coding sequence of the human 5HT2A receptor was obtained from a human brain cortex cDNA library, and cloned into the cloning site of pCEXV-3 eukaryotic expression vector. This construct was transfected into COS-7 cells by the DEAE-dextran method (Cullen, 1987). Cells were harvested after 72 hours and lysed by sonication in 5 mM Tris-HCl, 5 mM EDTA, pH 7.5. The cell lysates were subjected to centrifugation at 1000 rpm for 5 minutes at 4°C, and the supernatant was subjected to centrifugation at 30,000 x g for 20 minutes at 4°C. The pellet was suspended in 50 mM Tris-HCl buffer (pH 7.7 at room temperature) containing 10 mM MgS04, 0.5 mM EDTA, and 0.1% ascorbate. The affinity of compounds at 5HT2A receptors were determined in equilibrium competition binding assays using [^3H]ketanserin (1 nM). Nonspecific binding was defined by the addition of 10 µM mianserin. The bound radioligand was separated by filtration through GF/B filters using a cell harvester.
(§1) Binding data were analyzed using nonlinear regression and statistical techniques available in the GraphPAD Prism package (San Diego, CA). Enzymatic assay data were derived from a standard curve of reference compound data.

[2] = biological target: T2, rat D3 receptors (Rattus norvegicus, UniProt P19020); assay: Radioligand binding, dopamine D3 receptor; conditions: for Ki: Table 9, read-out: rD3 Ki; for selectivity ratio rD3: Table 10, Ki rD3 divided by Ki hGAL3
T2 construct: purchased BioSignal, Inc. (Montreal, Canada)
T2 sequence (P19020 whole entry): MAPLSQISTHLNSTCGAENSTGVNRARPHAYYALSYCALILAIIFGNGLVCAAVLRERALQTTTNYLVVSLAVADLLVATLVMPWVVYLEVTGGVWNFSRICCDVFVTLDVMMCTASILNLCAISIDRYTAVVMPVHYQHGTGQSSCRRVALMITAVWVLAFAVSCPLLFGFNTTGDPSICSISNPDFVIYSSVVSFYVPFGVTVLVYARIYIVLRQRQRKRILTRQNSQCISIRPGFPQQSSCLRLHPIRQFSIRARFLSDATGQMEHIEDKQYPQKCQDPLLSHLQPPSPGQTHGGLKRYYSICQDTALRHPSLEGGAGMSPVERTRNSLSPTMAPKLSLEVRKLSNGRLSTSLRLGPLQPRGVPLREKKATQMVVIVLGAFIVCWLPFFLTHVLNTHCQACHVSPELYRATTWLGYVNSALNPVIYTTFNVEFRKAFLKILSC
Description: (§2) Other receptors: Cell membranes expressing human dopamine D1, D2, D4 and rat D3 receptors were purchased through BioSignal, Inc. (Montreal, Canada). Binding assays using the histamine H1 receptor; dopamine receptors; and α1A, α1E, and α2 adrenergic receptors may be carried out according to the procedures described in U.S. Patent No. 5,780,485, the disclosure of which is hereby incorporated by reference in its entirety into this application. Binding assays using the dopamine D5 receptor may be carried out according to the procedures described in U.S. Patent No. 5,882,855, the disclosure of which is hereby incorporated by reference in its entirety into this application. Binding assays for the human α1D adrenergic receptor may be carried out according to the procedures described in U.S. Patent No. 6,156,518, the disclosure of which is hereby incorporated by reference in its entirety into this application.
as §1

[3] = biological target: T3, rat 5HT2C receptor (Rattus norvegicus, UniProt P08909); assay: Radioligand binding, 5HT2C receptor; conditions: for Ki: Table 7, read-out: r5HT2C Ki; for selectivity ratio r5HT2C: Table 8, Ki r5HT2C divided by Ki hGAL3
T3 construct: expressed in transfected cells
T3 sequence (P08909 33-460): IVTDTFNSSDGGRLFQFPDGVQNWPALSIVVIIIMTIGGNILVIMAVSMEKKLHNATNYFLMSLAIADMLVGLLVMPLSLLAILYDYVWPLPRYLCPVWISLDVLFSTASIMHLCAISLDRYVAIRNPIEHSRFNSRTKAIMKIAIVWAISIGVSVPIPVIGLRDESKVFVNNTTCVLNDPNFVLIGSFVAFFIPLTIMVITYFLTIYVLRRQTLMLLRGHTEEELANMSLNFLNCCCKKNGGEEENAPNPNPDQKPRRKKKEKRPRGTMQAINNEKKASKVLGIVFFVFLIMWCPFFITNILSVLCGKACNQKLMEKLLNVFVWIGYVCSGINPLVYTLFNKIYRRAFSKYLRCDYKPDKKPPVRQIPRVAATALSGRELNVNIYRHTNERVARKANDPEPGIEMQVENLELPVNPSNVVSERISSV
Experimental: Other 5-HT Receptors: Other serotonin receptor binding assays were performed according to published methods: rat 5HT2C receptor (Julius et al., 1988); and 5-HT6 (Monsma, et al., 1993). The binding assays using the 5-HT4 receptor were performed according to the procedures described in U.S. Patent No. 5,766,879, the disclosure of which is hereby incorporated by reference in its entirety into this application.
as §1

[4] = biological target: T4, human dopamine D4 (Homo sapiens, UniProt P21917); assay: Radioligand binding, dopamine D4 receptor; conditions: for Ki: Table 9, read-out: hD4 Ki; for selectivity ratio hD4: Table 10, Ki hD4 divided by Ki hGAL3
T4 construct: purchased BioSignal, Inc. (Montreal, Canada)
T4 sequence (P21917 1-419): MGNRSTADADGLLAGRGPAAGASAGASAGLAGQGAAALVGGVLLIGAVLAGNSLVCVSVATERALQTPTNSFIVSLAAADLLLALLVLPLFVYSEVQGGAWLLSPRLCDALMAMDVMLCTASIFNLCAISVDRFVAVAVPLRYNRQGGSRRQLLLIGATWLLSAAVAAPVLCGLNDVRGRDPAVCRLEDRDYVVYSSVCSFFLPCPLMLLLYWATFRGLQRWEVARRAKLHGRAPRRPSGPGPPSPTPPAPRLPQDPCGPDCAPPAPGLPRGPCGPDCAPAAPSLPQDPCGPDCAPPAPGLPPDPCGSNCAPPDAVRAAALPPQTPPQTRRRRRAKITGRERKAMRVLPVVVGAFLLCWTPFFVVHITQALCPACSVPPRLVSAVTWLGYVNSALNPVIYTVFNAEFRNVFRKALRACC
Description: as §2, §1

[5] = biological target: T5, human 5HT1B (Homo sapiens, UniProt P28222); assay: Radioligand binding, 5HT1B receptor ([3H]-serotonin); conditions: for Ki: Table 7, read-out: h5HT1B Ki; for selectivity ratio h5HT1B: Table 8, Ki h5HT1B divided by Ki hGAL3
T5 construct: expressed in transfected cells
T5 sequence (P28222 whole entry): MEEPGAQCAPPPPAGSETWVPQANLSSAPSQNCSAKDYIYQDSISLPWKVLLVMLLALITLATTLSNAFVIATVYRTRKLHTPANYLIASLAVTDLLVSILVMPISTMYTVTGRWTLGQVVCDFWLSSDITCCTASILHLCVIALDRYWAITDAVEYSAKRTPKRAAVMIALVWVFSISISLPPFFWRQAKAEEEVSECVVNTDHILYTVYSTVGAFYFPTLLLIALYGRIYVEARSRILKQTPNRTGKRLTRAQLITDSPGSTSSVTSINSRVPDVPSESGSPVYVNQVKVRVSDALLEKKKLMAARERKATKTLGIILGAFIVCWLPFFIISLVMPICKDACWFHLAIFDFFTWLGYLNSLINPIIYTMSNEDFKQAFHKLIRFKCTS
Experimental: Human 5HT1B, 5HT1D, 5HT1E, 5HT1F, and 5HT7 Receptors: The cell lysates of LM(tk-) clonal cell line stably transfected with the genes encoding each of these 5HT receptor-subtypes were prepared as described above. Cell membranes were suspended in 50mM Tris-HCl buffer (pH 7.4 at 37°C) containing 10 mM MgCl2, 0.2 mM EDTA, 10 µM pargyline, and 0.1% ascorbate. […] Nonspecific binding was determined in the presence of 10 µM serotonin. The bound radioligand was separated by filtration through GF/B filters using a cell harvester.
as §1

T1 sequence (P28223 whole entry): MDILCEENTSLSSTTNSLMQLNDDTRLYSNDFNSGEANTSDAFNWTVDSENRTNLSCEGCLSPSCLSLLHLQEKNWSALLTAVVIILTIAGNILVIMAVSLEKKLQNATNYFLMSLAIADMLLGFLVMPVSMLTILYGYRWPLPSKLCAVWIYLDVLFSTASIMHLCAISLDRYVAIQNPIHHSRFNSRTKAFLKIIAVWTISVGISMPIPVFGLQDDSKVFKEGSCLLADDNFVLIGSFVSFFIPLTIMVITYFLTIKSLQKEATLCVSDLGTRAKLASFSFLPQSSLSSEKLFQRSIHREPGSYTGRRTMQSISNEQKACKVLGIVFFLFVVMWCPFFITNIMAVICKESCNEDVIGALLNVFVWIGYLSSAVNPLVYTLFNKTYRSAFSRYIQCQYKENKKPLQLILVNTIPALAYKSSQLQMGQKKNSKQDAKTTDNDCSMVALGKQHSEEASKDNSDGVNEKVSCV

| Structure (SMILES) | Ki [1] | selectivity ratio h5HT2A [1] | Ki [2] | selectivity ratio rD3 [2] | Ki [3] | selectivity ratio r5HT2C [3] | Ki [4] | selectivity ratio hD4 [4] | Ki [5] | selectivity ratio h5HT1B [5] |
| --- | --- | --- | --- | --- | --- | --- | --- | --- | --- | --- |
| CN(C)c1cc(Nc2ccc(Cl)c(Cl)c2)nc(Nc2ccccc2)n1 [Example 60] | 26.1 µM | >100 | 15.3 µM | >100 | 1.78 µM | 21 | 48.8 µM | >100 | 5.46 µM | >30 |
| Cc1ccc(Nc2cc(N(C)C)nc(N(C)CCc3c[nH]c4ccccc34)n2)cc1 [Example 77] | 2.24 µM | 28 | 2.72 µM | >30 | 0.456 µM | 6 | 0.504 µM | 6 | 0.365 µM | 5 |
| O=C1C(=Nc2cccc(C(F)(F)F)c2)c2ccccc2N1c1ccccc1 [Example 92, 1-PHENYL-3- [[3-(TRIFLUOROMETHYL)PHENYL]IMINO]-1,3-DIHYDRO-2H-INDOL-2-ONE] |  | >100 |  | >100 |  |  |  | >100 |  | >100 |
| O=C1C(=Nc2cccc(Cl)c2)c2ccccc2N1c1ccccc1 [Example 94, 3-[(3-CHLOROPHENYL)IMINO]-1-PHENYL-1,3-DIHYDRO-2H-INDOL-2-ONE] | > 50 µM | >100 | 0.423 µM | 9 | 4.1 µM | >30 | > 50 µM | >100 | 3.35 µM | >30 |
| O=C1C(=Nc2ccc(C(F)(F)F)cc2)c2ccccc2N1c1ccccc1 [Example 95, 1-PHENYL-3-[[4-(TRIFLUOROMETHYL)PHENYL]IMINO]-1,3-DIHYDRO-2H-INDOL-2-ONE] | > 50 µM | >100 | 0.466 µM | 16 | 3.47 µM | >100 | > 50 µM | >100 | 5.23 µM | >100 |
| O=C1C(=Nc2ccc(Cl)cc2)c2ccccc2N1c1ccccc1 [Example 97, 3-[(4-CHLOROPHENYL)IMINO]-1-PHENYL-1,3-DIHYDRO-2H-INDOL-2-ONE] | > 50 µM | >100 | 9.72 µM | >100 | 1.95 µM | >30 | > 50 µM | >100 | 5.06 µM | >30 |
| O=C1C(=Nc2ccc(Br)cc2)c2ccccc2N1c1ccccc1 [Example 98, 3-[(4-BROMOPHENYL)IMINO]-1-PHENYL-1,3-DIHYDRO-2H-INDOL-2-ONE] | > 50 µM | >100 | 0.592 µM | 16 | 2.26 µM | >30 | > 50 µM | >100 | 2.42 µM | >30 |
